Source: patent US20250304596A1, “PYRAZINE DERIVATIVES AND USES THEREOF” (FOGHORN THERAPEUTICS INC., priority 2022, published 2025)

What was measured:
HiBit-BRM fusion protein = molecular target: T1, HiBit-BRM fusion protein (Homo sapiens, UniProt P51531); assay: HiBiT-BRM cell-based degradation assay (Nano-Glo HiBiT Lytic Detection, 24 h); conditions: stable HeLa cell line expressing HiBiT-BRM; for DC50: read-out: BRM HiBit Degradation IC50
T1 construct: expressed in transfected cells
Method: (§1) Procedure: A stable HeLa cell line expressing HiBiT-BRM was generated. On day 0, 5000 cells were seeded in 40 μL of media into each well of 384-well cell culture plates. On day 1, cells were treated with 120 nL DMSO or 120 nL of 3-fold serially DMSO-diluted compounds (10 points in duplicate with 30 μM as final top dose). Subsequently plates were incubated for 24 h in a standard tissue culture incubator and equilibrated at room temperature for 15 minutes. Nano-Glo HiBiT Lytic Detection System (Promega N3050) reagent was freshly prepared and 20 ul was added to each well. Upon addition of this LgBit-containing reagent, the HiBiT and LgBiT proteins associate to form the luminescent NanoBiT Iuciferase. The plates were shaken for 10 minutes at room temperature and the bioluminescence read using an EnVision plate reader (PerkinElmer).
(§2) The degradation % was calculated using the following formula: % degradation=100%-100%×(LumSample−LumLC)/(LumHC−LumLC). DMSO treated cells are employed as High Control (HC) and 2 μM of a known BRM/BRG1 degrader standard treated cells are employed as Low Control (LC).

[1] = molecular target: T2, HiBit-BRG1 fusion protein (Homo sapiens, UniProt P51532); assay: HiBiT-BRG1 cell-based degradation assay (Nano-Glo HiBiT Lytic Detection, 24 h); conditions: stable HeLa cell line expressing HiBit-BRG1 and LgBit; for Dmax: read-out: BRG1 HiBit Degradation Maximum (%); for DC50: read-out: BRMG1 HiBit Degradation IC50
T2 construct: expressed in transfected cells
Method: as §1
For measurement of BRG1 degradation, a stable HeLa cell line expressing HiBit-BRG1 and LgBit was generated. The same protocol as above was then followed.
as §2

T2 sequence (P51532 whole entry, the tested form may be a part): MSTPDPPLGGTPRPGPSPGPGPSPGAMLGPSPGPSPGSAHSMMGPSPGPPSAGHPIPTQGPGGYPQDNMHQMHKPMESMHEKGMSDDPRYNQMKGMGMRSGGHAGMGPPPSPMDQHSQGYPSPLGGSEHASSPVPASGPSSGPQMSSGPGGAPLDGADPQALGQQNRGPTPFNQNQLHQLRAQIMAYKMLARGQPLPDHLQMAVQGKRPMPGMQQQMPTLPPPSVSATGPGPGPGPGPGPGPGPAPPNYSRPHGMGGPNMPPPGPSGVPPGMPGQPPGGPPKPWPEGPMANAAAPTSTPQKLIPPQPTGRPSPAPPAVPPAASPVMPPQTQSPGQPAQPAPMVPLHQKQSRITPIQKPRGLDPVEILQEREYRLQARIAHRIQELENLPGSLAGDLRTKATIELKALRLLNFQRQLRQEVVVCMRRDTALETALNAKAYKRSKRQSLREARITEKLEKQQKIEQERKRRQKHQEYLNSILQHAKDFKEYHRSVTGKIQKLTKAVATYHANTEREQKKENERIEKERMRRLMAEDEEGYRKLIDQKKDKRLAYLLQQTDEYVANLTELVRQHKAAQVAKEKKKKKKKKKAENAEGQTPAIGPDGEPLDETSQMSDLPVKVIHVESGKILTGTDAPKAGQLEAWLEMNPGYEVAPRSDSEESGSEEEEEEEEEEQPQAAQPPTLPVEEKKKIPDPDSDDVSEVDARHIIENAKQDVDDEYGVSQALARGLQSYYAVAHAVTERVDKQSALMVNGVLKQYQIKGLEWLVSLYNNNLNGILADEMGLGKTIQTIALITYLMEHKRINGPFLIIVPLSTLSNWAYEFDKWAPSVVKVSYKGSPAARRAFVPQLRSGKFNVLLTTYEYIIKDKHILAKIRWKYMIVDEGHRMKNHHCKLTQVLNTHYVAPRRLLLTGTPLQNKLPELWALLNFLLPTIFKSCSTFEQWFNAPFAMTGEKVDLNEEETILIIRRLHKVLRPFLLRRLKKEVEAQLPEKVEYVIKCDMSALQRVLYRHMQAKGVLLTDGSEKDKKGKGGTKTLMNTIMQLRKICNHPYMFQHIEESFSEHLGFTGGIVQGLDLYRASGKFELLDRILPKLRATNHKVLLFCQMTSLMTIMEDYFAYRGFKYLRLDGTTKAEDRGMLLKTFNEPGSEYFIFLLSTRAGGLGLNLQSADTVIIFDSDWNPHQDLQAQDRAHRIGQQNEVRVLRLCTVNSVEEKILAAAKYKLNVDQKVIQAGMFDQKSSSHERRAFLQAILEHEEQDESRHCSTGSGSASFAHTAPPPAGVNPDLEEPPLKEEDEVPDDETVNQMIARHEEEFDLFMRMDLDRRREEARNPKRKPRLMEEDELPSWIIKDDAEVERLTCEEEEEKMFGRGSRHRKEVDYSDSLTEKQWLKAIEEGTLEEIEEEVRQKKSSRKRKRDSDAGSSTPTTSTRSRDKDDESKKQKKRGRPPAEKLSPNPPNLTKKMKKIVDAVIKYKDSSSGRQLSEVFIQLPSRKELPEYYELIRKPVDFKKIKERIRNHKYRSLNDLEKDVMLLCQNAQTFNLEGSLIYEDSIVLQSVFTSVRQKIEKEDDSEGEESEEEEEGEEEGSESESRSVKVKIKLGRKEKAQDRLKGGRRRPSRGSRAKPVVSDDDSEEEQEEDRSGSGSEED
T1 sequence (P51531 whole entry, the tested form may be a part): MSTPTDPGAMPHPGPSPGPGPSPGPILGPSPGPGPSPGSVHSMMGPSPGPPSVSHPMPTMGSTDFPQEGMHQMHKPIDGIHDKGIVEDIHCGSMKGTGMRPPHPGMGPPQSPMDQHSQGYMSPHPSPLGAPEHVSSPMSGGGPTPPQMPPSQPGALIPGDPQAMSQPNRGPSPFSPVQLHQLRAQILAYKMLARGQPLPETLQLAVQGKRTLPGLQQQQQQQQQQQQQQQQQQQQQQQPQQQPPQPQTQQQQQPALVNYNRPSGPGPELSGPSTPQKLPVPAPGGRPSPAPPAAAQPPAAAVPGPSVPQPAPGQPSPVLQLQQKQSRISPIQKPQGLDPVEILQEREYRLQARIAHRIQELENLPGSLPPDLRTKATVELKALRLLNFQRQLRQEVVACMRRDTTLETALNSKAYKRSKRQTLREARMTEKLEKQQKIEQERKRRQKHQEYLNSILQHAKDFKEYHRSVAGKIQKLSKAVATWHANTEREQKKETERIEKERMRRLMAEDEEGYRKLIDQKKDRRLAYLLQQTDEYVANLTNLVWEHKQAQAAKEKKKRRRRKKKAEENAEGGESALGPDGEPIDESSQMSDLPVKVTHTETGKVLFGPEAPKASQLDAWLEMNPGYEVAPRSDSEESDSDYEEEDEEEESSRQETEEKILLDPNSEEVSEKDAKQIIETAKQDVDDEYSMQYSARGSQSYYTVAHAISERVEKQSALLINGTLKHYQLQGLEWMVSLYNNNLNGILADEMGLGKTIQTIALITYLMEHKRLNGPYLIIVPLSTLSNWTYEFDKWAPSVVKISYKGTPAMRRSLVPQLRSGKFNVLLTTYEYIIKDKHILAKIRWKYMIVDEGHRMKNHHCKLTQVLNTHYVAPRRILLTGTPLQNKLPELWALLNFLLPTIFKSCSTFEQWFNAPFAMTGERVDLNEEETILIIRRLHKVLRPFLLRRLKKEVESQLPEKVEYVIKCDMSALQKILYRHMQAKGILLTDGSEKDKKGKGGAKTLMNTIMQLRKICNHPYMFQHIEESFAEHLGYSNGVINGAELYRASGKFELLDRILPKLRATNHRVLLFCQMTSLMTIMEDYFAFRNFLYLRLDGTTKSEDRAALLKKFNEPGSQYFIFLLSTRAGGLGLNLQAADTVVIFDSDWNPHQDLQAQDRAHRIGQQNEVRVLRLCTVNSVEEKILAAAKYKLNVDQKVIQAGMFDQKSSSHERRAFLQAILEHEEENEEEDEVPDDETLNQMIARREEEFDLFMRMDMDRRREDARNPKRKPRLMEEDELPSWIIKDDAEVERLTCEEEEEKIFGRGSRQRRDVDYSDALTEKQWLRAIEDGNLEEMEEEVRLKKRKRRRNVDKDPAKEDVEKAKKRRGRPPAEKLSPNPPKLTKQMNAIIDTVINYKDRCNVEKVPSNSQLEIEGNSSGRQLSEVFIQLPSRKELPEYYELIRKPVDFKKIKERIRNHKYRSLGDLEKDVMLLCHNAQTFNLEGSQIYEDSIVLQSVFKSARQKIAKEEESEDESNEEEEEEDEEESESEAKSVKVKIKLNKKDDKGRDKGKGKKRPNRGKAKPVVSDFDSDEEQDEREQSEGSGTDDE

DC50 (HiBit-BRM fusion protein) [nM] | Dmax [1] [%] | DC50 [1] [nM] | SMILES | BRM HiBit Degradation Maximum (%) (HiBit-BRM fusion protein)
< 10 | > 50 | – | Cc1ncsc1-c1ccc([C@H](C)NC(=O)[C@@H]2C[C@@H](O)CN2C(=O)[C@@H](c2cc(-c3cnc(N4CC[C@H](c5cc6nnc(-c7ccccc7O)cc6s5)C4)nc3)no2)C(C)C)cc1 [Compound 91, (2S,4R)-4-hydroxy-1-((R)-2-(3-(2-((S)-3-(3-(2-hydroxyphenyl)thieno[3,2-c]pyridazin-6-yl)pyrrolidin-1-yl)pyrimidin-5-yl)isoxazol-5-yl)-3-methylbutanoyl)-N-((S)-1-(4-(4-methylthiazol-5-yl)phenyl)ethyl)pyrrolidine-2-carboxamide] | A (“A” indicates maximum degradation ≥75%)
> 10 | < 50 | > 1000 | Cc1ncsc1-c1ccc([C@H](C)NC(=O)[C@@H]2C[C@@H](O)CN2C(=O)[C@@H](c2cc(-c3ccc(N4CCC(c5cc6cc(-c7ccccc7O)nnc6s5)CC4)nn3)no2)C(C)C)cc1 [Compound 33, (2S,4R)-4-hydroxy-1-((R)-2-(3-(6-(4-(3-(2-hydroxyphenyl)thieno[2,3-c]pyridazin-6-yl)piperidin-1-yl)pyridazin-3-yl)isoxazol-5-yl)-3-methylbutanoyl)-N-((S)-1-(4-(4-methylthiazol-5-yl)phenyl)ethyl)pyrrolidine-2-carboxamide] | A (“A” indicates maximum degradation ≥75%)
< 10 | > 75 | > 10 | Cc1ncsc1-c1ccc([C@H](C)NC(=O)[C@@H]2C[C@@H](O)CN2C(=O)[C@@H](c2cc(-c3cnc(N4CCN(c5cc6nnc(-c7ccccc7O)cc6s5)CC4)nc3)no2)C(C)C)cc1 [Compound 9, (2S,4R)-4-hydroxy-1-{2-[3-(2-{4-[3-(2-hydroxyphenyl)thieno[3,2-c]pyridazin-6-yl]piperazin-1-yl}pyrimidin-5-yl)-1,2-oxazol-5-yl]-3-methylbutanoyl}-N-[(1S)-1-[4-(4-methyl-1,3-thiazol-5-yl)phenyl]ethyl]pyrrolidine-2-carboxamide] | A (“A” indicates maximum degradation ≥75%)
< 10 | > 75 | > 10 | Cc1ncsc1-c1ccc([C@H](C)NC(=O)[C@@H]2C[C@@H](O)CN2C(=O)[C@@H](c2cc(-c3cnc(N4CCN(c5sc6nnc(-c7ccccc7O)cc6c5C)CC4)nc3)no2)C(C)C)cc1 [Compound 53, (2S,4R)-4-hydroxy-1-((R)-2-(3-(2-(4-(3-(2-hydroxyphenyl)-5-methylthieno[2,3-c]pyridazin-6-yl)piperazin-1-yl)pyrimidin-5-yl)isoxazol-5-yl)-3-methylbutanoyl)-N-((S)-1-(4-(4-methylthiazol-5-yl)phenyl)ethyl)pyrrolidine-2-carboxamide] | A (“A” indicates maximum degradation ≥75%)
< 10 | > 75 | > 10 | Cc1ncsc1-c1ccc([C@H](C)NC(=O)[C@@H]2C[C@@H](O)CN2C(=O)[C@@H](c2cc(N3CC4(CCC(c5sc6nnc(-c7ccccc7O)cc6c5C)CC4)C3)no2)C(C)C)cc1 [Compound 88, (2S,4R)-4-hydroxy-1-((R)-2-(3-(7-(3-(2-hydroxyphenyl)-5-methylthieno[2,3-c]pyridazin-6-yl)-2-azaspiro[3.5]nonan-2-yl)isoxazol-5-yl)-3-methylbutanoyl)-N-((S)-1-(4-(4-methylthiazol-5-yl)phenyl)ethyl)pyrrolidine-2-carboxamide] | A (“A” indicates maximum degradation ≥75%)
> 10 | < 50 | > 1000 | Cc1ncsc1-c1ccc([C@H](C)NC(=O)[C@@H]2C[C@@H](O)CN2C(=O)[C@@H](c2cc(-c3ccc(N4CCC(c5cc6cc(-c7ccccc7O)nnc6s5)CC4)nc3)no2)C(C)C)cc1 [Compound 39, (2S,4R)-4-hydroxy-1-((R)-2-(3-(6-(4-(3-(2-hydroxyphenyl)thieno[2,3-c]pyridazin-6-yl)piperidin-1-yl)pyridin-3-yl)isoxazol-5-yl)-3-methylbutanoyl)-N-((S)-1-(4-(4-methylthiazol-5-yl)phenyl)ethyl)pyrrolidine-2-carboxamide] | A (“A” indicates maximum degradation ≥75%)
> 1000 | < 50 | > 1000 | Cc1ncsc1-c1ccc([C@H](C)NC(=O)[C@@H]2C[C@@H](O)CN2C(=O)[C@@H](c2cc(-c3cnc(N4C[C@H]5C[C@@H]4C[C@H]5c4cc5cc(-c6ccccc6O)nnc5s4)nc3)no2)C(C)C)cc1 [Compound 13, (2S,4R)-4-hydroxy-1-((R)-2-(3-(2-((1R,4S,5R)-5-(3-(2-hydroxyphenyl)thieno[2,3-c]pyridazin-6-yl)-2-azabicyclo[2.2.1]heptan-2-yl)pyrimidin-5-yl)isoxazol-5-yl)-3-methylbutanoyl)-N-((S)-1-(4-(4-methylthiazol-5-yl)phenyl)ethyl)pyrrolidine-2-carboxamide] | C (“C” indicates maximum degradation <50%)
> 10 | > 75 | > 100 | Cc1ncsc1-c1ccc([C@H](C)NC(=O)[C@@H]2C[C@@H](O)CN2C(=O)[C@@H](c2cc(N3CCC4(CC3)CC(c3cc5cc(-c6ccccc6O)nnc5s3)C4)no2)C(C)C)cc1 [Compound 98, (2S,4R)-4-hydroxy-1-((R)-2-(3-(2-(3-(2-hydroxyphenyl)thieno[2,3-c]pyridazin-6-yl)-7-azaspiro[3.5]nonan-7-yl)isoxazol-5-yl)-3-methylbutanoyl)-N-((S)-1-(4-(4-methylthiazol-5-yl)phenyl)ethyl)pyrrolidine-2-carboxamide] | A (“A” indicates maximum degradation ≥75%)
> 10 | < 50 | – | Cc1nc(N2CC[C@@H](c3sc4nnc(-c5ccccc5O)cc4c3C)C2)ccc1-c1cc([C@H](C(=O)N2C[C@H](O)C[C@H]2C(=O)N[C@@H](C)c2ccc(-c3scnc3C)cc2)C(C)C)on1 [Compound 94, (2S,4R)-4-hydroxy-1-((R)-2-(3-(6-((R)-3-(3-(2-hydroxyphenyl)-5-methylthieno[2,3-c]pyridazin-6-yl)pyrrolidin-1-yl)-2-methylpyridin-3-yl)isoxazol-5-yl)-3-methylbutanoyl)-N-((S)-1-(4-(4-methylthiazol-5-yl)phenyl)ethyl)pyrrolidine-2-carboxamide] | A (“A” indicates maximum degradation ≥75%)
< 10 | > 50 | > 10 | Cc1ncsc1-c1ccc([C@H](C)NC(=O)[C@@H]2C[C@@H](O)CN2C(=O)[C@@H](c2cc(N3CC[C@@H](c4sc5nnc(-c6ccccc6O)cc5c4C)C3)no2)C(C)C)cc1 [Compound 74, (2S,4R)-4-hydroxy-1-((R)-2-(3-((R)-3-(3-(2-hydroxyphenyl)-5-methylthieno[2,3-c]pyridazin-6-yl)pyrrolidin-1-yl)isoxazol-5-yl)-3-methylbutanoyl)-N-((S)-1-(4-(4-methylthiazol-5-yl)phenyl)ethyl)pyrrolidine-2-carboxamide] | A (“A” indicates maximum degradation ≥75%)
< 10 | < 50 | > 1000 | Cc1cc(N2CCC(c3sc4nnc(-c5ccccc5O)cc4c3C)CC2)ncc1-c1cc([C@H](C(=O)N2C[C@H](O)C[C@H]2C(=O)N[C@@H](C)c2ccc(-c3scnc3C)cc2)C(C)C)on1 [Compound 38, (2S,4R)-4-hydroxy-1-((R)-2-(3-(6-(4-(3-(2-hydroxyphenyl)-5-methylthieno[2,3-c]pyridazin-6-yl)piperidin-1-yl)-4-methylpyridin-3-yl)isoxazol-5-yl)-3-methylbutanoyl)-N-((S)-1-(4-(4-methylthiazol-5-yl)phenyl)ethyl)pyrrolidine-2-carboxamide] | A (“A” indicates maximum degradation ≥75%)
< 10 | < 50 | > 1000 | Cc1ncsc1-c1ccc([C@H](C)NC(=O)[C@@H]2C[C@@H](O)CN2C(=O)[C@@H](c2cc(-c3cnc(N4CCC(c5sc6nnc(-c7ccccc7O)cc6c5C)CC4)nc3)no2)C(C)C)cc1 (single isomer, unassigned) [Compound 66] | A (“A” indicates maximum degradation ≥75%)

SMILES | DC50 (HiBit-BRM fusion protein) [nM] | Dmax [1] [%] | DC50 [1] [nM] | BRM HiBit Degradation Maximum (%) (HiBit-BRM fusion protein)
Cc1ncsc1-c1ccc([C@H](C)NC(=O)[C@@H]2C[C@@H](O)CN2C(=O)[C@@H](c2cc(-c3cnc(N4C[C@H]5C[C@@H](C4)[C@@H]5c4cc5cc(-c6ccccc6O)nnc5s4)nc3)no2)C(C)C)cc1 [Compound 18, (2S,4R)-4-hydroxy-1-((R)-2-(3-(2-((1R,5S,6R)-6-(3-(2-hydroxyphenyl)thieno[2,3-c]pyridazin-6-yl)-3-azabicyclo[3.1.1]heptan-3-yl)pyrimidin-5-yl)isoxazol-5-yl)-3-methylbutanoyl)-N-((S)-1-(4-(4-methylthiazol-5-yl)phenyl)ethyl)pyrrolidine-2-carboxamide] | < 10 | < 50 | > 1000 | A (“A” indicates maximum degradation ≥75%)
